Tests used:
[1] = system: BSA-Amadori glycation intermediate; experiment: Conversion of BSA-Amadori glycation intermediate to CML, measured with anti-CML antibody; assay type: biochemical; conditions: 0.1, 1, 15 mM PM; 200 mM sodium phosphate buffer, pH 7.5, 37° C.; FIG. 1A
Method: FIG. 1A is a graph depicting the conversion of Amadori intermediate to CML measured using anti-CML antibody.
Isolated BSA-Amadori glycation intermediate was formed at diabetic (30 mM) concentration of glucose. The conversion of Amadori intermediate to the AGE N^ε-carboxymethyllysine (CML) was measured using an anti-CML antibody.

[2] = system: gentamicin and glycerol rat models of ARF; experiment: Gentamicin and glycerol rat models of ARF treated with PM; assay type: in vivo, Sprague-Dawley rats; conditions: ARF+PM group compared to ARF group; PM 180 mg/day/kg body weight in drinking water
Text: The gentamicin and the glycerol rat models of ARF. There are several animal models of ARF, each having its specific advantages and limitations (see e.g., Bellomo et al. (2004) Group Crit Care 8:R204-12). Two such models are the gentamicin and the glycerol models. […] Importantly, the gentamicin and the glycerol models are highly relevant, representing two of the major clinical causes of ARF: antibiotic toxicity and rhabdomyolosis, respectively (Bellomo et al. (2004) Group Crit Care 8:R204-12). Examining the effects of PM in two different models also helps to minimize possible model-specific adverse effects.
The primary outcome measured is serum creatinine level at the end of PM treatment. […]
Two-month-old male Sprague-Dawley rats (250-300 g) are housed individually in metabolic cages. […] Animals are fed standard powdered stock ration, and their body weights are monitored daily. […]
For PM experiments, rats are randomized into 4 groups based on their baseline serum creatinine levels: (a) the Control group (no ARF is induced); (b) the PM group (no ARF is induced, but PM is given in drinking water); (c) the ARF group; and (d) the ARF+PM group. The experiment is terminated when the serum creatinine in the ARF group reaches its maximum level as determined in the model optimization studies described hereinabove. […]

[3] = system: 8-F2-isoprostane (8-iso-PGF2) in the kidney; experiment: Carbon tetrachloride rat model of oxidative stress, 8-F2-isoprostane in kidney by GC-MS; assay type: in vivo; conditions: CCl4 vs. CCl4+PM, p=0.066, not statistically significant; FIG. 5
Method: FIG. 5 is a plot depicting the effect of PM administration on the levels of a marker of oxidative stress (8-F2-lsoP) in the carbon tetrachloride (CCl4) rat model disclosed herein as determined by gas-chromatography/mass-spectrometry (GC-MS).
Based on the results of the in vitro experiments disclosed herein, it was hypothesized that PM might reduce oxidative stress in the kidney in vivo. This hypothesis was evaluated using the carbon tetrachloride rat model of oxidative stress (see Kadiiska et al. (2005) Free Radic Biol Med 38:698-710). The effect of PM was determined by measuring the levels of an oxidative stress marker, 8-F2-isoprostane (8-iso-PGF2) in the kidney using gas-chromatography/mass-spectrometry (see Morrow et al. (1999) Methods Enzymol 300:3-12).

[4] = system: urinary oxalate excretion; experiment: Ethylene glycol rat model of experimental hyperoxaluria with PM in drinking water; assay type: in vivo, Sprague-Dawley male rats
Method: FIGS. 6A and 6B are graphs depicting the effect of PM treatment on urinary oxalate excretion in animals with experimental hyperoxalura. Sprague-Dawley male rats (49-52 days old) were randomized on Day 1 to receive either ethylene glycol (0.75% v/v in drinking water (450 mg/day/kg body wt.); EG group) or no treatment (Control group). After Day 14, animals within each group were pair-matched according to their oxalate level. One member of each pair was then randomly assigned to receive PM (3 mg/ml or 180 mg/day/kg body wt.) either in drinking water (PM group) or in 0.75% ethylene glycol (EG+PM group). Urine samples were collected under toluene (to inhibit bacteria growth) in 50 ml tubes with hydrochloric acid to minimize spontaneous breakdown of urinary ascorbic acid to oxalate. Urinary oxalate was measured as described under Methods. Each symbol represents mean value±S.E. (n=5); at the time points indicated by asterisks, differences between the EG group and the EG+PM group were statistically significant (p<0.05). The data points on the graphs correspond to the following: ●—Control group; ▪—EG group; —PM group; ⋄—+EG+PM group.
In FIG. 6A, the results of PM given continuously starting from Day 14 are presented.
In FIG. 6B, the results for a separate experiment in which PM treatment was started on Day 14 and was discontinued on Day 28 are presented. In this experiment, the elevated levels of oxalate excretion in Control group on Day 3 are most likely related to animal adaptation. Note that the oxalate levels went down and leveled off before the beginning of PM treatment.
Ethylene glycol model of hyperoxaluria and pyridoxamine treatment. An established rat model of experimental hyperoxaluria, the ethylene glycol (EG) model (see e.g., Lyon et al. (1996) Invest Uro14:143-151; Khan (1997) World J Urol 05:236-243) was employed. […] Because ethylene glycol is converted to glycolaldehyde, an intermediate in glyoxylate pathway, its administration results in increased urinary oxalate levels (Lyon et al. (1996) Invest Urol 4:143-151; Khan (1997) World J Urol 05:236-243). […]
For uniform administration of EG and PM, water supply to all animals was limited to 45 ml/day. […] The length of treatment was determined based on the fact that after about 35 days of experimental hyperoxaluria rats may have some evidence of microscopic nephrolithiasis, but their renal function remains normal (Khan (1997) World J Urol 05:236-243). […]

[5] = Reactive PM amino groups in incubations with ethylene glycol (TNBS assay); assay type: physicochemical; conditions: 24 hours at room temperature
Method: Effect of pyridoxamine treatment on urinary oxalate excretion. […] With the proposed experimental design, interference between PM and ethylene glycol might have been possible because both were administered in drinking water. If significant spontaneous oxidation of ethylene glycol occurs in solution, the resulting carbonyl moieties might react with the PM amino group. To address this question, the amount of reactive PM amino groups was measured in incubations with ethylene glycol using TNBS assay (Spadaro et al. (1979) Anal Biochem 96:317-321).

[6] = system: Human glomerular visceral epithelial cells (podocytes); experiment: Cisplatin-induced podocyte cell death, viability by Rapid Cell Proliferation Kit; assay type: cell-based; conditions: 22 hours of treatment; RPMI medium with 1% FBS; FIG. 4
Method: Human glomerular visceral epithelial cells (podocytes) were plated at 8,000 cells/well (96-well plate) and incubated for 24 hours in RPMI medium supplemented with 1% FBS. Following this incubation cells were treated as indicated without changing the medium. The treatment continued for 22 hours and cell viability was measured using Rapid Cell Proliferation Kit (CALBIOCHEM®), a unit of EMD Biosciences, Inc. San Diego, Calif., United States of America).

collagen IV = experiment: Formation of CML on collagen IV coated plates incubated with glucose (ELISA, anti-CML antibody); assay type: biochemical; conditions: 5 mM and 30 mM glucose; 200 mM sodium phosphate buffer, pH 7.5, 37° C., 40 days; FIG. 1B
Method: The secondary antibody used in the assay was an alkaline phosphatase conjugated goat anti-rabbit IgG from Sigma-Aldrich Co. (St. Louis, Mo., United States of America). Incubations were carried out in 200 mM sodium phosphate buffer, pH 7.5 at 37° C. for 40 days. […]

diabetic rat model = conditions: similar or higher PM doses than 180 mg/day/kg body wt.; long-term; Degenhardt et al. 2002, Stitt et al. 2002; cited from earlier work

Cc1ncc(CO)c(CN)c1O [PM, 4-(aminomethyl)-5-(hydroxymethyl)-2-methyl-pyridin-3-ol]
conversion of the BSA-Amadori glycation intermediate to BSA-CML [1]: inhibited the conversion of the BSA-Amadori glycation intermediate to BSA-CML | Creatinine levels at the end of experiment (primary outcome) [2]: envisioned to be significantly lower | degree of renal tubular pathology at the end of experiment (secondary outcome) [2]: envisioned to be lower | level of the isoprostane marker (8-F2-isoprostane) in the kidney [3]: tendency toward lowering the level of the isoprostane marker | urinary oxalate excretion ([4]; EG+PM group vs EG group, PM 180 mg/day/kg body wt. in drinking water continuously from Day 14, FIG. 6A): dramatic and sustained decrease in urinary oxalate excretion | urinary oxalate excretion after PM was discontinued ([4]; PM started Day 14, discontinued Day 28, FIG. 6B): increase in urinary oxalate excretion to the levels found in untreated hyperoxaluric animals | weight gain ([4]; all experimental groups, duration of the experiment, PM 180 mg/day/kg body wt.): No significant differences in weight gain | adverse effects ([4]; all experimental groups, PM 180 mg/day/kg body wt.): no adverse effects | change in reactive PM amino groups in incubations with ethylene glycol [5]: No change in amino groups was detected | podocyte viability under cisplatin treatment [6]: protected cell viability in a concentration-dependent manner | formation of CML on collagen IV (collagen IV): inhibited the formation of CML on collagen IV | therapeutic effect (diabetic rat model): had therapeutic effects

Source: patent US20070238761A1, “Use of pyridoxamine to treat and/or prevent disease processes” (Vanderbilt University, priority 2005, published 2007)
